Data reported in publication PMC5744665 (Journal of medicinal chemistry, 2015).

Columns and labels:
[1] = target: PDC-3 (Pseudomonas aeruginosa, UniProt P24735, T105A); format: biochemical
[2] = tested on: O=C(Cc1cccs1)N[C@@H]1C(=O)N2C(C(=O)O)=C(/C=C/c3ccc([N+](=O)[O-])cc3[N+](=O)[O-])CS[C@H]12; assay: purified protein, by the assay type; settings: other: substrate; used to correct Ki; pH 7.4
[3] = tested on: E.coli DH10B pBCSK- PDC-3; assay: MIC by agar dilution, cefotaxime alone or with boronate, strain producing PDC-3; format: cell-based; settings: E. coli possessing the P. aeruginosa AmpC; BATSI added to cefotaxime
[4] = tested on: E.coli DH10B; assay: microbe, parasite or virus in culture; format: cell-based; settings: Escherichia coli

For `O=C(Cc1cccs1)N[C@@H](Cn1ccnn1)B(O)O` [Compound 13f, (1R)-2-([1,2,3]triazol-1-yl)-1-(2-thienylacetylamino)ethaneboronic acid], the “contribution of the methyltriazole to binding (ΔΔG)” value ([1]; 13f compared with Ref Compound A, from Ki vs PDC-3) was 0.5 kcal/mol.
With P99 (Enterobacter cloacae) the Km [2] was 20.03 ± 2.05 µM.
For `O=C(Cc1cccs1)N[C@@H](Cn1cc(C(=O)O)nn1)B(O)O` [Compound 13a, (1R)-2-(4-Carboxy-[1,2,3]triazol-1-yl)-1-(2-thienylacetylamino)ethaneboronic acid], the “energetic contribution to binding of the carboxylate (ΔΔGbind)” value ([1]; 13a compared with 13f, from Ki vs PDC-3, ΔΔGbind = −RTln Ki ref/Ki) was 2.2 kcal/mol, the “improvement in recognition caused by ring hopping (ΔΔG)” value ([1]; 13a compared with Reference compound B) was 0.7 kcal/mol and the “reduction in MIC of cefotaxime” value [3] was “five dilution (2 log) reduction”.
For `CO/N=C(\C(=O)N[C@@H]1C(=O)N2C(C(=O)O)=C(COC(C)=O)CS[C@H]12)c1csc(N)n1` [TAX, cefotaxime], the MIC [4] was < 0.125 µg/mL.
Work on `O=C(Cc1cccs1)N[C@@H]1C(=O)N2C(C(=O)O)=C(/C=C/c3ccc([N+](=O)[O-])cc3[N+](=O)[O-])CS[C@H]12` [nitrocefin, reference compound] yielded a Km ([1]; read-out: Km of nitrocefin, PDC-3, substrate, used to correct Ki) of 14.6 ± 2.2 µM.
